Laboratory results taken from patent US10246426B2, “Triazole compounds as T-type calcium channel blockers” (IDORSIA PHARMACEUTICALS LTD, priority 2014, dated 2019).

Target: Cav3.2 (Homo sapiens, UniProt O95180)
Assay: Calcium flux FLIPR assay, HEK293 cells recombinantly expressing Cav3.2
Assay type: cell-based
Details: Cav3.2-channel, Ca2+ entry stimulated by 10 mM CaCl2
Method in brief: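 Fluo-4-loaded HEK293 cells stably expressing Cav3.2, seeded overnight at 37 °C; compounds diluted in TEAC buffer (pH 7.2) and preincubated 3 min before Ca2+ entry triggered with CaCl2 at 10 mM final. Area under FLIPR fluorescence trace fitted sigmoidally; IC50 relative to vehicle signal.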

Sequence of Cav3.2 (O95180 whole entry, looked up): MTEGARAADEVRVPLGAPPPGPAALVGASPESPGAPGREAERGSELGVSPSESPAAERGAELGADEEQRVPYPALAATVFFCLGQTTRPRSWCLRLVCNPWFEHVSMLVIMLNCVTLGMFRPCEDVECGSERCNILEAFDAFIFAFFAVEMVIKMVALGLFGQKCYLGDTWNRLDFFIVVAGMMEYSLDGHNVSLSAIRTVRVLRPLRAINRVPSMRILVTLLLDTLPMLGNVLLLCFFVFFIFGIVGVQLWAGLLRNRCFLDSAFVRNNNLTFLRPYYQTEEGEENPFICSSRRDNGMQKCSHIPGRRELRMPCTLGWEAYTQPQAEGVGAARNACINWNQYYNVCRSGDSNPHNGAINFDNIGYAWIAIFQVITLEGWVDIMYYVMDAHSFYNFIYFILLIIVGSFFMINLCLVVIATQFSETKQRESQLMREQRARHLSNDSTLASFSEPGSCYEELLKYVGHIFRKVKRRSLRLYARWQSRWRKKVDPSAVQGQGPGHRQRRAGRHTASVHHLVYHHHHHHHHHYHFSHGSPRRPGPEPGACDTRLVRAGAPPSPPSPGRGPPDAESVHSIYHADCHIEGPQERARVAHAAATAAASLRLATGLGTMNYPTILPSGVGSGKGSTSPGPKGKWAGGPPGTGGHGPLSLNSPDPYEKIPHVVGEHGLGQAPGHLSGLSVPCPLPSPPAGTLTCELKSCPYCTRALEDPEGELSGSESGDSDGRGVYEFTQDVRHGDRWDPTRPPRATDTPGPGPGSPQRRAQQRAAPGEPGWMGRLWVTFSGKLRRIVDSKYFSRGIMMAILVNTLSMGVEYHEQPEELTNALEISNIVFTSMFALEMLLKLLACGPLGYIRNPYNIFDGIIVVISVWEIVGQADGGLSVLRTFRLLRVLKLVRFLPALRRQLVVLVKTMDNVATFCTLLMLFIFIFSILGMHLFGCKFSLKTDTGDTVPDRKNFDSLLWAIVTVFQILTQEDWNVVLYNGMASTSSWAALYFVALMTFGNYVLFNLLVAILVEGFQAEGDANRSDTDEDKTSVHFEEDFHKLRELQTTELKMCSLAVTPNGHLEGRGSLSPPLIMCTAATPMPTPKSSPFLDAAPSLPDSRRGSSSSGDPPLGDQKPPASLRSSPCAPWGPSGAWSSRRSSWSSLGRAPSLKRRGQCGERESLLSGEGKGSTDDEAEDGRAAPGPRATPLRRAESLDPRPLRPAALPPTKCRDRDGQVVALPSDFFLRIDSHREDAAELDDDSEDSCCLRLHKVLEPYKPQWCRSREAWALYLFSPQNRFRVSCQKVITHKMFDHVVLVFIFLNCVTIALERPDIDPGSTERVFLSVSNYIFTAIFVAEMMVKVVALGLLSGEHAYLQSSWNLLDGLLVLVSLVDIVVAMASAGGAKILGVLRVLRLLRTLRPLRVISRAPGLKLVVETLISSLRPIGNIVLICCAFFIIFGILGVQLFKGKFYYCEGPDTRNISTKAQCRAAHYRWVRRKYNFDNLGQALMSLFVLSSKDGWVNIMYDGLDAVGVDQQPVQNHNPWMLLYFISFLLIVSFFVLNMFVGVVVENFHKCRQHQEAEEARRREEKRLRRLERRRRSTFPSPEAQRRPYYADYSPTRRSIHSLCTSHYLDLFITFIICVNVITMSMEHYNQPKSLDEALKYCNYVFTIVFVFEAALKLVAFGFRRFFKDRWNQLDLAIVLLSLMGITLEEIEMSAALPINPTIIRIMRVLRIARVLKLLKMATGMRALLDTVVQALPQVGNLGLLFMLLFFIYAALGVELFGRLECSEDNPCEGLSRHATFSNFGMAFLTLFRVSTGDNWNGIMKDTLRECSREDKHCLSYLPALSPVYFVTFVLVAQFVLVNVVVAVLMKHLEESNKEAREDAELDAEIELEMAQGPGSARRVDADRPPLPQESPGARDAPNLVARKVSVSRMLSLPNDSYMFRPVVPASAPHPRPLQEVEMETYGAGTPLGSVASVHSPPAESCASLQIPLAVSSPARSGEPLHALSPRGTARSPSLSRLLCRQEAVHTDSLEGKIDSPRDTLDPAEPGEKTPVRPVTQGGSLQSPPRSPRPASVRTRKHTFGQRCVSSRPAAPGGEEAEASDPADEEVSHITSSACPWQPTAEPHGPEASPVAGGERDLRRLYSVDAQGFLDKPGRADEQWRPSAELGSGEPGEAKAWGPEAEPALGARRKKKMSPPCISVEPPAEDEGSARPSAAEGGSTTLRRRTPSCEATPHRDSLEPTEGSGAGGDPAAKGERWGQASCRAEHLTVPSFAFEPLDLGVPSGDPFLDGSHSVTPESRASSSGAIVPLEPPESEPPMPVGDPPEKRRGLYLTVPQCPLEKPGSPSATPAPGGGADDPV

| IC50 | Structure (SMILES) |
| --- | --- |
| 49 nM | CC(C)(C)c1ccc(CC(=O)Nc2cnn(Cc3ccc(OC(F)F)c(F)c3)n2)cc1 [Example 178, 2-(4-tert-Butyl-phenyl)-N-[2-(4-difluoromethoxy-3-fluoro-benzyl)-2H-[1,2,3]triazol-4-yl]-acetamide] |
| 22 nM | Cn1ncc2cc(CC(=O)Nc3cnn(Cc4ccc(OC(F)F)c(F)c4)n3)ccc21 [Example 179, N-[2-(4-Difluoromethoxy-3-fluoro-benzyl)-2H-[1,2,3]triazol-4-yl]-2-(1-methyl-1H-indazol-5-yl)-acetamide] |
| 43 nM | CC(C)c1ccc(CC(=O)Nc2cnn(Cc3ccc(OC(F)F)c(F)c3)n2)cc1 [Example 180, N-[2-(4-Difluoromethoxy-3-fluoro-benzyl)-2H-[1,2,3]triazol-4-yl]-2-(4-isopropyl-phenyl)-acetamide] |
| 86 nM | O=C(Cc1ccc(C2(C(F)(F)F)CC2)cc1)Nc1cnn(Cc2ccc(OC(F)F)c(F)c2)n1 [Example 181, N-[2-(4-Difluoromethoxy-3-fluoro-benzyl)-2H-[1,2,3]triazol-4-yl]-2-[4-(1-trifluoromethyl-cyclopropyl)-phenyl]-acetamide] |
| 13 nM | O=C(Cc1ccc(N2CCC(F)(F)C2)nc1)Nc1cnn(Cc2ccc(OC(F)F)c(F)c2)n1 [Example 182, N-[2-(4-Difluoromethoxy-3-fluoro-benzyl)-2H-[1,2,3]triazol-4-yl]-2-[6-(3,3-difluoro-pyrrolidin-1-yl)-pyridin-3-yl]-acetamide] |
| 26 nM | O=C(Cc1ccc(N2CCCC2)nc1)Nc1cnn(Cc2ccc(OC(F)F)c(F)c2)n1 [Example 183, N-[2-(4-Difluoromethoxy-3-fluoro-benzyl)-2H-[1,2,3]triazol-4-yl]-2-(6-pyrrolidin-1-yl-pyridin-3-yl)-acetamide] |
| 83 nM | CC(C)(C)c1ccc(CC(=O)Nc2cnn(Cc3ccc(OC(F)(F)F)c(F)c3)n2)cc1 [Example 184, 2-(4-tert-Butyl-phenyl)-N-[2-(3-fluoro-4-trifluoromethoxy-benzyl)-2H-[1,2,3]triazol-4-yl]-acetamide] |
| 17 nM | Cn1ncc2ccc(CC(=O)Nc3cnn(Cc4ccc(OC(F)(F)F)c(F)c4)n3)cc21 [Example 185, N-[2-(3-Fluoro-4-trifluoromethoxy-benzyl)-2H-[1,2,3]triazol-4-yl]-2-(1-methyl-1H-indazol-6-yl)-acetamide] |
| 8.8 nM | Cn1ncc2cc(CC(=O)Nc3cnn(Cc4ccc(OC(F)(F)F)c(F)c4)n3)ccc21 [Example 186, N-[2-(3-Fluoro-4-trifluoromethoxy-benzyl)-2H-[1,2,3]triazol-4-yl]-2-(1-methyl-1H-indazol-5-yl)-acetamide] |
| 65 nM | CC(C)c1ccc(CC(=O)Nc2cnn(Cc3ccc(OC(F)(F)F)c(F)c3)n2)cc1 [Example 187, N-[2-(3-Fluoro-4-trifluoromethoxy-benzyl)-2H-[1,2,3]triazol-4-yl]-2-(4-isopropyl-phenyl)-acetamide] |
| 96 nM | O=C(Cc1ccc(C2(C(F)(F)F)CC2)cc1)Nc1cnn(Cc2ccc(OC(F)(F)F)c(F)c2)n1 [Example 188, N-[2-(3-Fluoro-4-trifluoromethoxy-benzyl)-2H-[1,2,3]triazol-4-yl]-2-[4-(1-trifluoromethyl-cyclopropyl)-phenyl]-acetamide] |
| 17 nM | O=C(Cc1ccc(N2CCC(F)(F)C2)nc1)Nc1cnn(Cc2ccc(OC(F)(F)F)c(F)c2)n1 [Example 189, 2-[6-(3,3-Difluoro-pyrrolidin-1-yl)-pyridin-3-yl]-N-[2-(3-fluoro-4-trifluoromethoxy-benzyl)-2H-[1,2,3]triazol-4-yl]-acetamide] |
| 14 nM | CCn1ncc2cc(CC(=O)Nc3cnn(Cc4ccc(OC(F)(F)F)c(F)c4)n3)ccc21 [Example 190, 2-(1-Ethyl-1H-indazol-5-yl)-N-[2-(3-fluoro-4-trifluoromethoxy-benzyl)-2H-[1,2,3]triazol-4-yl]-acetamide] |
| 11 nM | Cc1nn(C)c2ccc(CC(=O)Nc3cnn(Cc4ccc(OC(F)(F)F)c(F)c4)n3)cc12 [Example 191, 2-(1,3-Dimethyl-1H-indazol-5-yl)-N-[2-(3-fluoro-4-trifluoromethoxy-benzyl)-2H-[1,2,3]triazol-4-yl]-acetamide] |
| 23 nM | O=C(Cc1ccc(N2CCCC2)nc1)Nc1cnn(Cc2ccc(OC(F)(F)F)c(F)c2)n1 [Example 192, N-[2-(3-Fluoro-4-trifluoromethoxy-benzyl)-2H-[1,2,3]triazol-4-yl]-2-(6-pyrrolidin-1-yl-pyridin-3-yl)-acetamide] |
| 340 nM | N#Cc1ccc(Cn2ncc(NC(=O)Cc3ccc(OCC4(F)COC4)cc3)n2)cc1 [Example 194, N-[2-(4-Cyano-benzyl)-2H-[1,2,3]triazol-4-yl]-2-[4-(3-fluoro-oxetan-3-ylmethoxy)-phenyl]-acetamide] |
| 63 nM | N#Cc1ccc(Cn2ncc(NC(=O)Cc3ccc(C4(C(F)(F)F)CC4)cc3)n2)cc1 [Example 195, N-[2-(4-Cyano-benzyl)-2H-[1,2,3]triazol-4-yl]-2-[4-(1-trifluoromethyl-cyclopropyl)-phenyl]-acetamide] |
| 52 nM | CC1(COc2ccc(CC(=O)Nc3cnn(Cc4ccc(C#N)cc4)n3)cc2)CC(F)(F)C1 [Example 197, N-[2-(4-Cyano-benzyl)-2H-[1,2,3]triazol-4-yl]-2-[4-(3,3-difluoro-1-methyl-cyclobutylmethoxy)-phenyl]-acetamide] |
| 130 nM | N#Cc1ccc(Cn2ncc(NC(=O)Cc3ccc(C4(F)COC4)cc3)n2)cc1 [Example 198, N-[2-(4-Cyano-benzyl)-2H-[1,2,3]triazol-4-yl]-2-[4-(3-fluoro-oxetan-3-yl)-phenyl]-acetamide] |
| 17 nM | Cc1cc(CC(=O)Nc2cnn(Cc3ccc(C#N)c(F)c3)n2)ccc1OCC(F)(F)F [Example 199, N-[2-(4-Cyano-3-fluoro-benzyl)-2H-[1,2,3]triazol-4-yl]-2-[3-methyl-4-(2,2,2-trifluoro-ethoxy)-phenyl]-acetamide] |
| 410 nM | Cc1ccc(Cn2ncc(NC(=O)Cc3ccc(OCC4(F)COC4)cc3)n2)cc1C#N [Example 200, N-[2-(3-Cyano-4-methyl-benzyl)-2H-[1,2,3]triazol-4-yl]-2-[4-(3-fluoro-oxetan-3-ylmethoxy)-phenyl]-acetamide] |
| 310 nM | Cc1ccc(Cn2ncc(NC(=O)Cc3ccc(C4(F)COC4)cc3)n2)cc1C#N [Example 201, N-[2-(3-Cyano-4-methyl-benzyl)-2H-[1,2,3]triazol-4-yl]-2-[4-(3-fluoro-oxetan-3-yl)-phenyl]-acetamide] |
| 320 nM | COc1ccc(Cn2ncc(NC(=O)Cc3ccc(C(C)(C)C)cc3)n2)cc1C#N [Example 202, 2-(4-tert-Butyl-phenyl)-N-[2-(3-cyano-4-methoxy-benzyl)-2H-[1,2,3]triazol-4-yl]-acetamide] |
| 220 nM | COc1ccc(Cn2ncc(NC(=O)Cc3ccc(C4(C(F)(F)F)CC4)cc3)n2)cc1C#N [Example 203, N-[2-(3-Cyano-4-methoxy-benzyl)-2H-[1,2,3]triazol-4-yl]-2-[4-(1-trifluoromethyl-cyclopropyl)-phenyl]-acetamide] |

| Structure (SMILES) | IC50 |
| --- | --- |
| N#Cc1ccc(Cn2ncc(NC(=O)Cc3ccc(OC4CC(F)(F)C4)cc3)n2)cc1 [Example 196, N-[2-(4-Cyano-benzyl)-2H-[1,2,3]triazol-4-yl]-2-[4-(3,3-difluoro-cyclobutoxy)-phenyl]-acetamide] | 41 nM |
